Test results published in patent US7605265B2, “Heterodimers and methods of using them” (priority 2007, dated 2009).

What was measured:
[1] = test system: scopolamine-induced memory impaired rats; test: Morris water maze, scopolamine-induced memory impairment; format: in vivo, rat
Description: The Morris water maze consists of a water pool with a hidden, submerged escape platform. The rats must learn, over a period of consecutive days, the location of the platform using either contextual or local cues. The time taken to locate the hidden platform (escape latency) is a measure of the animal's cognitive abilities.
(§1) Scopolamine (0.1 mg/kg) was first i.p. administered to young adult rats to impair their memories. Scopolamine-induced memory impaired rats were then orally administered one of three different doses of compound B (0.025, 0.050, or 0.100 mg/kg) and subjected to the Morris water maze over a period of 4 days. On each day, the time taken for the rats to detect the hidden platform in the water maze was measured, in seconds.
as §1, with “C (0.1, 0.2,” for “B (0.025, 0.050,”, “0.4” for “0.100”
as §1, with “A (0.1, 0.2,” for “B (0.025, 0.050,”, “0.4” for “0.100”
A spatial bias (% of total distance swum in the training quadrant during spatial probe trial) for the region of the apparatus where the platform was positioned during training was also measured for compounds B and C.
The spatial bias for the region of the testing apparatus where the hidden platform was positioned during training was measured. […] Tacrine (THA) was included for comparison purposes.

transient focal ischemia = test: MCAO (middle carotid artery occlusion model), transient focal ischemia; format: in vivo, mice
Description: The MCAO (middle carotid artery occlusion model) was performed to investigate the protective effects of compounds A, B and C on the brain when the brain was exposed to transient focal ischemia (lack of oxygen), emulating brain conditions during a stroke. […] The ability of the novel compounds to protect against the appearance of these neurological deficits was examined using a four-point scale neurological scoring system (Mann Whitney U test). For each of the following observable signs, the distribution of test subjects was noted (with and without treatment with the invention after ischemia): (0) no observable neurological deficits (normal); (1) failure to extend the left forepaw fully (mild); (2) circling to the contralateral side (moderate); and (3) loss of walking and righting reflex (severe). • (ii) The brains of the test subjects slices were sectioned into five pieces and the infarct area and volume of each slice was measured. The % of infarct area in test subjects treated with the invention after ischemia was compared to that of the control group for each brain slice. • (iii) Hemispheric brain swelling and infarct volume (the area of dead tissue caused by inadequate blood supply) was measured for test subjects treated with the invention after ischemia, and compared to that of the control group.
The compounds were administered 5 minutes after ischemia, 5 minutes after reperfusion, or 6 hours after ischemia. FIGS. 5a to 5f show results for the heterodimers compound B, C or A respectively, when administered 5 minutes after ischemia or reperfusion. FIGS. 5g and 5h show the results when the novel heterodimers were administered 6 hours after ischemia.
Compound B was administered at 5 minutes after ischemia. Distribution of neurological scores based on a four-point scale neurological scoring system (Mann Whitney U test): (0) no observable neurological deficits (normal); (1) failure to extend the left forepaw fully (mild); (2) circling to the contralateral side (moderate); and (3) loss of walking and righting reflex (severe).
The brain was sectioned into five pieces, each 2-mm thick. The infarct area of each posterior surface was analyzed by an image analysis program. The percentage of infarct area and volume were calculated and presented as the percentage of the infarct area of the contralateral hemisphere to eliminate the contribution of edema to the ischemic lesion.
The infarct area of each posterior surface was analyzed by an image analysis program. Hemispheric brain swelling was calculated as follows (ipsilateral volume−contralateral volume)/contralateral volume×100%.

[2] = 0.005 mg/kg, 5 minutes after ischemia
[3] = 0.05 mg/kg, 5 minutes after ischemia
[4] = 0.1 mg/kg, 5 minutes after ischemia
[5] = 0.2 mg/kg, 5 minutes after ischemia

O=c1ccc2c([nH]1)CCC(NCCCNc1c3c(nc4cc(Cl)ccc14)CCCC3)C2 (stereo not shown) [Compound A]
scopolamine-induced performance deficits (escape latency) ([1]; 0.2 and 0.4 mg/kg orally, scopolamine 0.1 mg/kg i.p., FIG. 4c): significantly reversed scopolamine-induced performance deficits
spatial bias ([1]; 0.2 and 0.4 mg/kg, scopolamine 0.1 mg/kg, FIG. 4e, 4f): spatial bias close to control levels
spatial bias (% of total distance swum in the training quadrant during spatial probe trial) ([1]; memory-impaired rats, FIG. 4d-4f): significantly increased spatial bias
% Infarct area in brain slice # 1 (transient focal ischemia; [2]): 2.2 ± 2.0%
% Infarct area in brain slice # 2 (transient focal ischemia; [2]): 48.8 ± 4.3%
% Infarct area in brain slice # 3 (transient focal ischemia; [2]): 49.3 ± 4.4%
% Infarct area in brain slice # 4 (transient focal ischemia; [2]): 26.5 ± 9.3%
% Infarct area in brain slice # 5 (transient focal ischemia; [2]): −4.3 ± 0.6%
Hemispheric swelling (%) (transient focal ischemia; [2]): 10.3 ± 0.4%
Infarct volume (%) (transient focal ischemia; [2]): 31.3 ± 4.3%
Observed Neurological Deficits Mean ± SEM (transient focal ischemia; [2]): 1.6 ± 0.2
Observed Neurological Deficits, score 0 (number of animals) (transient focal ischemia; [2]): 0
Observed Neurological Deficits, score 1 (number of animals) (transient focal ischemia; [2]): 2
Observed Neurological Deficits, score 2 (number of animals) (transient focal ischemia; [2]): 3
Observed Neurological Deficits, score 3 (number of animals) (transient focal ischemia; [2]): 0
n (dead/total): dead/total (transient focal ischemia; [2]): 5 (5/10)
% Infarct area in brain slice # 1 (transient focal ischemia; [3]): −0.4 ± 2.2%
% Infarct area in brain slice # 2 (transient focal ischemia; [3]): 39.1 ± 2.4 %
% Infarct area in brain slice # 3 (transient focal ischemia; [3]): 44.5 ± 0.9 %
% Infarct area in brain slice # 4 (transient focal ischemia; [3]): 17.1 ± 3.2 %
% Infarct area in brain slice # 5 (transient focal ischemia; [3]): −6.3 ± 2.8%
Hemispheric swelling (%) (transient focal ischemia; [3]): 15.5 ± 1.1%
Infarct volume (%) (transient focal ischemia; [3]): 24.8 ± 1.1 %
Observed Neurological Deficits Mean ± SEM (transient focal ischemia; [3]): 1.2 ± 0.2
Observed Neurological Deficits, score 0 (number of animals) (transient focal ischemia; [3]): 0
Observed Neurological Deficits, score 1 (number of animals) (transient focal ischemia; [3]): 5
Observed Neurological Deficits, score 2 (number of animals) (transient focal ischemia; [3]): 1
Observed Neurological Deficits, score 3 (number of animals) (transient focal ischemia; [3]): 0
n (dead/total): dead/total (transient focal ischemia; [3]): 6 (1/7)
% Infarct area in brain slice # 1 (transient focal ischemia; [4]): 2.0 ± 1.8%
% Infarct area in brain slice # 2 (transient focal ischemia; [4]): 49.5 ± 2.0 %
% Infarct area in brain slice # 3 (transient focal ischemia; [4]): 48.4 ± 1.8 %
% Infarct area in brain slice # 4 (transient focal ischemia; [4]): 10.4 ± 3.3 %
% Infarct area in brain slice # 5 (transient focal ischemia; [4]): −9.9 ± 1.7%
Hemispheric swelling (%) (transient focal ischemia; [4]): 12.5 ± 1.1%
Infarct volume (%) (transient focal ischemia; [4]): 26.5 ± 1.4 %
Observed Neurological Deficits Mean ± SEM (transient focal ischemia; [4]): 1.2 ± 0.1
Observed Neurological Deficits, score 0 (number of animals) (transient focal ischemia; [4]): 0
Observed Neurological Deficits, score 1 (number of animals) (transient focal ischemia; [4]): 7
Observed Neurological Deficits, score 2 (number of animals) (transient focal ischemia; [4]): 2
Observed Neurological Deficits, score 3 (number of animals) (transient focal ischemia; [4]): 0
n (dead/total): dead/total (transient focal ischemia; [4]): 9 (4/13)
% Infarct area in brain slice # 1 (transient focal ischemia; [5]): 1.3 ± 0.7%
% Infarct area in brain slice # 2 (transient focal ischemia; [5]): 44.7 ± 6.6%
% Infarct area in brain slice # 3 (transient focal ischemia; [5]): 49.0 ± 3.8%
% Infarct area in brain slice # 4 (transient focal ischemia; [5]): 37.3 ± 3.8%
% Infarct area in brain slice # 5 (transient focal ischemia; [5]): −3.3 ± 1.6%
Hemispheric swelling (%) (transient focal ischemia; [5]): 15.2 ± 1.2%
Infarct volume (%) (transient focal ischemia; [5]): 33.8 ± 1.6%
Observed Neurological Deficits Mean ± SEM (transient focal ischemia; [5]): 1.9 ± 0.7
Observed Neurological Deficits, score 0 (number of animals) (transient focal ischemia; [5]): 0
Observed Neurological Deficits, score 1 (number of animals) (transient focal ischemia; [5]): 2
Observed Neurological Deficits, score 2 (number of animals) (transient focal ischemia; [5]): 4
Observed Neurological Deficits, score 3 (number of animals) (transient focal ischemia; [5]): 1
n (dead/total): dead/total (transient focal ischemia; [5]): 7 (4/11)
infarct area (in words) (transient focal ischemia; 0.05 and 0.1 mg/kg, 5 minutes after ischemia, FIG. 5e): improvement in the infarct area
infarct volume and hemispheric swelling (in words) (transient focal ischemia; 5 minutes after ischemia (compound A: 0.05 and 0.1 mg/kg), FIG. 5b, 5f): decreases infarct volume but not hemispheric swelling
neurological deficits induced by ischemia (in words) (transient focal ischemia; administered 5 minutes after ischemia): reduced neurological deficits induced by ischemia
